{"source": "paper PMC12275099", "about": "“VX-445 (elexacaftor) inhibits chloride secretion across human bronchial epithelial cells by directly blocking KCa3.1 channels” (PNAS Nexus, 2025)", "key": {"[1]": {"tested_on": "primary WT CFTR-expressing HBEs", "experiment": "Ussing chamber Isc, forskolin-stimulated Cl- secretion", "assay_type": "cell-based, human", "details": "for Isc in the presence of VX-445: single filters", "excerpt": "Primary human bronchial epithelial cells (HBEs) were collected from unused or discarded samples from the Center for Organ Recovery and Education via the University of Pittsburgh Pulmonary, Allergy, Critical Care, and Sleep Medicine Lung Biobank and Repository. All experimental procedures involving the use of HBEs were approved by the institutional review board (IRB STUDY19090084) and the Committee for Oversight of Research and Clinical Training Involving Decedents (CORID number 451) at the University of Pittsburgh. At all times, authors were blind to the identity of HBE donors. HBEs were cultured using the Vertex method ([72]). Studies were carried out on WT CFTR HBEs from 11 ([13]) donors and homozygous F508del/F508del CFTR HBEs from five ([5]) separate donors. HBEs were plated on Costar Transwell permeable supports ([…], 6.5 mm insert, polyester membrane, Corning) and grown at an air–liquid interface for 5+ weeks in HBE differentiation medium containing 2% Ultroser-G. Basolateral media were replaced three times per week. For whole-cell patch-clamp studies, HBEs were maintained in BronchiaLife airway media (LifeLine Cell Technology, LS-1047) and plated onto poly-L-lysine-coated coverslips (see below).\nCostar Transwell inserts were mounted in a modified Ussing chamber (P2300, Physiologic Instruments) and the monolayers continuously short-circuited (VCC MC8, Physiologic Instruments) by forcing the transepithelial voltage to 0 mV. Short-circuit current (Isc) measurements were taken in symmetric solutions, containing (in mM): 120 NaCl, 25 NaHCO3, 3.3 KH2PO4, 0.8 K2HPO4, 1.2 CaCl2, 1.2 MgCl2, and 10 glucose. The pH of the solution is 7.4 when gassed with 95% O2–5% CO2 at 37°C. Compounds were added cumulatively following the establishment of a new stable current response. Amiloride was added to the apical membrane, while all other compounds were added to both membranes due to their lipophilic nature. In all experiments, 10 µM amiloride was used to inhibit sodium absorption. Percent inhibition was calculated as the change in Isc (ΔIsc) between the forskolin or DCEBIO stable current level and the Isc following addition of the compound being assessed divided by the ΔIsc between the stable forskolin- or DCEBIO-induced Isc and the Isc following bumetanide addition."}, "[2]": {"tested_on": "BKCa (KCa1.1, KCNMA1) channels", "parameters": "method as in PMID 38954478", "details": "primary HBEs and HEK cells heterologously expressing the channel; cited from earlier work"}}, "note": "Several values for one entry are separate records, joined by “and”; a condition that tells them apart may be missing. Identical values can stand only once. Like-named read-outs stand apart in the source and are kept apart here.", "data": [{"smiles": "Cc1nn(C)cc1S(=O)(=O)NC(=O)c1ccc(-n2ccc(OCC(C)(C)C(F)(F)F)n2)nc1N1C[C@@H](C)CC1(C)C", "note": "[VX-445, elexacaftor]", "values": [{"measurement": "percent inhibition of forskolin-stimulated Isc from control", "setting": "[1]; 5 µM VX-445, Fig 1D", "result": 33, "unit": "%"}, {"measurement": "Isc in the presence of VX-445", "setting": "[1]; Fig 1F, VX-445 10 µM after forskolin and bumetanide", "result": "21 and 18 and 15 and 14 and 16 and 19 and 27 and 20"}, {"measurement": "Isc in the presence of VX-445", "setting": "[1]; Fig 2B, VX-445 10 µM after forskolin", "result": "12 and 11 and 16 and 20 and 15 and 21 and 19 and 14"}, {"measurement": "inhibition at 1 µM", "setting": "[1]; Homo sapiens, 1 µM VX-445, Fig 1D, read-out: percent inhibition of forskolin-stimulated Isc from control", "result": 0, "unit": "%"}, {"measurement": "inhibition at 10 µM", "setting": "[1]; Homo sapiens, VX-445 10 µM after VX-661 10 µM, nine filters from three donors, read-out: inhibition of forskolin-stimulated current subsequent to VX-661", "result": "47 ± 2", "unit": "%"}, {"measurement": "inhibition at 10 µM", "setting": "[1]; Homo sapiens, VX-445 10 µM, four donors, n = 13 (TRAM-34 series), read-out: inhibition of the forskolin-stimulated current", "result": "56 ± 2", "unit": "%"}, {"measurement": "inhibition at 10 µM", "setting": "[1]; Homo sapiens, VX-445 10 µM, 16 experiments from three donors (paxilline series), read-out: inhibition of the forskolin-stimulated Isc", "result": "45 ± 2", "unit": "%"}, {"measurement": "decrease of the forskolin-induced Cl- current", "setting": "[1]; VX-445 10 µM, 35 filters from five donors", "result": "47 ± 2", "unit": "%"}, {"measurement": "effect on the bumetanide-insensitive current", "setting": "[1]; applied after forskolin and bumetanide, VX-445 10 µM, acetazolamide 1 µM", "result": "had no effect"}, {"measurement": "effect on BKCa", "setting": "[2]", "result": "act as direct potentiators"}]}]}
